Reference: article PMC7607875, “Enhancing the antibacterial activity of antimicrobial peptide PMAP-37(F34-R) by cholesterol modification” (BMC Veterinary Research, 2020)
≈ marks a conversion by molar mass, not a printed value. Marks after values point to notes of the source that are not given here. Residues, ends and D or L forms follow the SMILES beside them. No end group written: not given here. *: point of attachment. Cholesteryloxycarbonyl = CC(C)CCC[C@@H](C)[C@H]1CC[C@H]2[C@@H]3CC=C4C[C@@H](OC(=O)*)CC[C@]4(C)[C@H]3CC[C@]12C

Experiments:
[1] = system: L. monocytogenes CICC21634; assay: MIC assay, microdilution method; assay type: cell-based
Procedure: (§1) The MIC values of Chol-37(F34-R) were determined using the microdilution method of the Clinical and Laboratory Standards Institute. Antibacterial intensity was tested in MHB against S. aureus ATCC25923, L. monocytogenes CICC21634, S. typhimurium SL1344, and P. aeruginosa GIM1.551. The tested strains were cultured for 12 h at 37 °C. Then, the bacterial inoculum concentration was adjusted to 1 × 10^6 CFU/mL. Twofold serial dilutions covering different concentrations from 0.0039 to 256 μg/mL for each peptide were added to media containing cultures of the tested strains in 96-well plates, which were incubated at 37 °C for 18 h. The MIC values were determined by evaluating the OD600nm of the cultures.

P. aeruginosa GIM1.551 [2] = assay: MIC assay, microdilution method; assay type: cell-based
Procedure: as §1

S. aureus ATCC25923 [3] = assay: MIC assay, microdilution method; assay type: cell-based
Procedure: as §1

P. aeruginosa GIM1.551 [4] = assay type: cell-based; settings: GIM1.551, 12 h
Procedure: as §1
(§2) The effects of salt ion and serum on the antibacterial activities of Chol-37(F34-R) were investigated by MIC assay. S. aureus ATCC25923 and P. aeruginosa GIM1.551 were used as the tested strains. The MIC values were determined at recommended doses of NaCl (8.766 g/L), CaCl2 (0.039 g/L), and fetal bovine serum (20%).
(§3) The effects of salt ion and serum on antibacterial activities of PMAP-37(F34-R)-C were investigated by MIC assay. a, The control MIC values were determined in the absence of physiological salts and serum. b, c, and d, The final concentrations of NaCl, CaCl2, and serum were 8.766 g/L, 0.039 g/L, and 20% (v/v), respectively.

S. aureus ATCC25923 [5] = assay type: cell-based; settings: ATCC25923, 12 h
Procedure: as §1, §2, §3

mouse erythrocytes = assay: Hemolytic assay; settings: at 1280 μg/mL, 1 h, OD570nm, n = 5
Procedure: Mouse erythrocytes were diluted to a final suspension concentration of 8% (v/v). Then, 100 μL erythrocyte suspension was incubated with 100 μL peptides at different concentrations ranging from 2.5 to 1280 μg/mL. PBS and 0.2% Triton X-100 were used as negative and positive controls, respectively. After 1 h of incubation, the tested samples were centrifuged for 5 min at 1000 g. Lastly, the absorbance of the supernatant of tested samples was measured at 570 nm. The percentage of hemolytic was obtained using the following formula: Hemolysis rate = [OD570nm (peptides) − OD570nm (PBS)]/[OD570nm (Triton X − 100) − OD570nm (PBS)] × 100 % .

NIH 3 T3 cells = assay: Cytotoxicity assay (MTT); settings: 24 h, at a concentration of 1280 μg/mL, n = 5
Procedure: NIH 3 T3 cells were seeded in a 96-well with a density of 1× 10^4 cells per well and incubated in 37 °C for 24 h. Afterward, the cell medium was replaced by fresh DMEM containing various concentrations of peptides (2.5–1280 μg/mL). After 24 h incubation, 20 μL MTT agent (5 mg/mL) was added to each well and incubated for 4 h. Then, the supernatant of each well was replaced with 150 μL DMSO. The absorbance was measured by a microplate reader (FlexStation III) at 570 nm.

S. aureus ATCC25923 [6] = assay: S. aureus ATCC25923-infected mouse abscess model; assay type: in vivo; settings: 10 μL of 1 μg/μL once per day for 3 days, day 3, n = 5
Text: (§4) The abscess model of mouse was built against S. aureus ATCC25923 or P. aeruginosa GIM1.551 as previously described with minor modifications. Twelve groups of 60 mice (5 mice per group) were randomly divided into PMAP-37, PMAP-37(F34-R), Chol-37(F34-R), ampicillin sodium (against S. aureus ATCC25923-infected mouse abscess model), benzylpenicillin potassium (against P. aeruginosa GIM1.551-infected mouse abscess model), PBS, and blank groups. The fur on the back of each mouse was shaved. Bacterial suspensions (1 × 10^8 CFU/mL, 50 μL) were injected into the right side of the dorsum underneath the thin skeletal muscle. After 1 h of inoculation, the infected areas were directly injected with PMAP-37, (10 μL, 1 μg/μL), PMAP-37(F34-R) (10 μL, 1 μg/μL), Chol-37(F34-R) (10 μL, 1 μg/μL), antibiotic (ampicillin sodium 10 μL, 1 μg/μL or benzylpenicillin potassium 10 μL, 1 μg/μL), or PBS (10 μL). The treatment program was conducted once per day for 3 days. Mice in the blank group were not challenged and treated. Three days after treatment, mice were euthanized with 120 mg/kg i.p. sodium pentobarbital, and their skin abscesses were harvested and homogenized as described above to assess the bacterial burden.

S. aureus ATCC25923 [7] = assay: S. aureus ATCC25923-infected mouse peritonitis model; assay type: in vivo; settings: i.p. 20 μL of 1 μg/μL once per day for 3 days
Procedure: The dissemination of S. aureus ATCC25923 to target organs was assessed in the peritonitis model. The assessment was performed on the basis of the method described previously with minor modifications. Six groups of 60 mice (10 mice per group) were randomly divided into PMAP-37, PMAP-37(F34-R), Chol-37(F34-R), ampicillin sodium, PBS, and blanks group. Bacterial suspension (1 × 10^8 CFU/mL, 100 μL) was intraperitoneally injected into mice. After 2 h inoculation, PMAP-37 (20 μL, 1 μg/μL), PMAP-37(F34-R) (20 μL, 1 μg/μL), Chol-37(F34-R) (20 μL, 1 μg/μL), ampicillin sodium (20 μL, 1 μg/μL), or PBS (20 μL) was intraperitoneally injected into the mice, and the treatment program was implemented once per day for 3 days. Mice in the blank group were not challenged and treated. […] Aliquots of diluted homogenized tissues were spread on LB agar, on which the bacterial burden was determined for analysis. […] Pathological changes were scored as follows: a score of 1 indicated no pathology, 2 indicated perivascular infiltrates, 3 indicated perivascular and interstitial infiltrates affecting < 20% of the section, 4 indicated perivascular and interstitial infiltrates affecting 20 to 50% of the section, and 5 indicated perivascular and interstitial infiltrates affecting > 50% of the section.

[8] = system: L. monocytogenes CICC21634; assay: Inhibition zone assay (Kirby-Bauer disk diffusion); assay type: cell-based; parameters: key: +, peptide have antibacterial activity; settings: disk with 10 μg, 37 °C, 18 h
Procedure: (§5) The antibacterial activity of Chol-37(F34-R) was detected using the Kirby-Bauer diffusion method. Four bacterial strains were used as experimental strains: L. monocytogenes CICC21634 cultured with BHI, P. aeruginosa GIM1.551 cultured with TSB, S. aureus ATCC25923, and S. typhimurium SL1344 cultured with LB medium. Briefly, the bacterial cells were cultured for 12 h at 37 °C in appropriate culture media, and the bacterial cell suspension was spread on the corresponding solid medium. Then, the disks containing 10 μg peptide or ceftiofur sodium were attached to the solid medium and incubated at 37 °C for 18 h. Lastly, the diameter of the inhibition zone was measured.

P. aeruginosa GIM1.551 [9] = assay: Inhibition zone assay (Kirby-Bauer disk diffusion); assay type: cell-based; parameters: key: +, peptide have antibacterial activity; settings: disk with 10 μg, 37 °C, 18 h
Procedure: as §5

S. aureus ATCC25923 [10] = assay: Inhibition zone assay (Kirby-Bauer disk diffusion); assay type: cell-based; parameters: key: +, peptide have antibacterial activity; settings: disk with 10 μg, 37 °C, 18 h
Procedure: as §5

S. typhimurium SL1344 [11] = assay: Inhibition zone assay (Kirby-Bauer disk diffusion); assay type: cell-based; parameters: key: +, peptide have antibacterial activity; settings: disk with 10 μg, 37 °C, 18 h
Procedure: as §5

S. typhimurium SL1344 [12] = assay type: cell-based; settings: SL1344, 18 h
Procedure: as §1

P. aeruginosa GIM1.551 [13] = assay: P. aeruginosa GIM1.551-infected mouse knife injury model; assay type: in vivo; settings: topical 10 μL of 1 μg/μL once per day for 7 days, day 7
Procedure: The P. aeruginosa strain GIM1.551 was used to build knife wound model of mouse as described elsewhere with minor modifications. A total of 30 mice were randomly divided into six groups. Briefly, the fur on the back of each mouse was removed by shaving. A 1.5 cm linear knife wound was made on the back of each mouse and infected by direct seeding with bacterial suspensions (1 × 10^8 CFU/mL, 50 μL). One day postinfection, the wounds were administered with PMAP-37 (10 μL, 1 μg/μL), PMAP-37(F34-R) (10 μL, 1 μg/μL), Chol-37(F34-R) (10 μL, 1 μg/μL), ampicillin sodium (10 μL, 1 μg/μL), or PBS (10 μL), and the treatment program was performed once per day for 7 days. The mice with no infection and treatment were used as blank control. The wounds of mice were wrapped in gauze bandages that were changed every day. Seven days after treatment, mice were euthanized with 120 mg/kg intraperitoneal (i.p.) sodium pentobarbital and their wound tissues were collected. The wound tissues were homogenized with a basic homogenizer. Following a 10-fold serial dilution in PBS, the homogenates were spread on TSB agar plates. The bacterial burden was determined after incubation at 37 °C for 18 h.

P. aeruginosa GIM1.551 [14] = assay: P. aeruginosa GIM1.551-infected mouse abscess model; assay type: in vivo; settings: P. aeruginosa GIM1.551 model; 10 μL of 1 μg/μL once per day for 3 days, day 3; n = 5
Text: as §4

Molecule | MIC, CaCl2 (P. aeruginosa GIM1.551 [4]) [µg/mL] | MIC, Fetal bovine serum (P. aeruginosa GIM1.551 [4]) [µg/mL] | MIC, NaCl (P. aeruginosa GIM1.551 [4]) [µg/mL] | MIC, control (P. aeruginosa GIM1.551 [4]) [µg/mL] | MIC, CaCl2 (S. aureus ATCC25923 [5]) [µg/mL] | MIC, Fetal bovine serum (S. aureus ATCC25923 [5]) [µg/mL] | MIC, NaCl (S. aureus ATCC25923 [5]) [µg/mL] | MIC, control (S. aureus ATCC25923 [5]) [µg/mL] | MIC ([1]; CICC21634, 18 h) | MIC (P. aeruginosa GIM1.551 [2]; GIM1.551, 18 h) | MIC (S. aureus ATCC25923 [3]; ATCC25923, 18 h) | MIC (S. typhimurium SL1344 [12]) | other results
CC[C@H](C)[C@H](NC(=O)[C@H](CCCNC(=N)N)NC(=O)[C@H](CCC(=O)O)NC(=O)[C@@H](NC(=O)[C@H](CCCCN)NC(=O)[C@H](CCC(=O)O)NC(=O)CNC(=O)[C@H](CC(C)C)NC(=O)[C@H](CCCNC(=N)N)NC(=O)[C@H](CCCNC(=N)N)NC(=O)CNC(=O)[C@H](CCCNC(=N)N)NC(=O)[C@H](CC(=O)O)NC(=O)[C@H](CO)NC(=O)[C@H](CC(C)C)NC(=O)[C@H](Cc1ccccc1)NC(=O)[C@H](CC(=O)O)NC(=O)[C@H](CCCNC(=N)N)NC(=O)[C@H](CC(C)C)NC(=O)[C@H](CCCNC(=N)N)NC(=O)[C@H](CO)NC(=O)[C@H](CC(C)C)NC(=O)[C@H](CC(C)C)NC(=O)CNC(=O)O[C@H]1CC[C@@]2(C)C(=CC[C@H]3[C@@H]4CC[C@H]([C@H](C)CCCC(C)C)[C@@]4(C)CC[C@@H]32)C1)[C@@H](C)CC)C(=O)NCC(=O)N[C@@H](CCC(N)=O)C(=O)N[C@@H](CCCCN)C(=O)N[C@H](C(=O)N[C@@H](CCCCN)C(=O)N[C@@H](CC(=O)O)C(=O)N[C@@H](CC(C)C)C(=O)N[C@@H](CO)C(=O)N[C@@H](CCC(=O)O)C(=O)N[C@@H](CCCNC(=N)N)C(=O)N[C@@H](Cc1ccccc1)C(=O)N[C@@H](CCC(N)=O)C(=O)N[C@@H](CO)C(=O)O)[C@@H](C)CC [Chol-37(F34-R)] (Cholesteryloxycarbonyl-GLLSRLRDFLSDRGRRLGEKIERIGQKIKDLSERFQS-OH) | 0.5 (≈ 0.104 µM) | 0.5 (≈ 0.104 µM) | 0.5 (≈ 0.104 µM) | 0.5 (≈ 0.104 µM) | 0.0078 (≈ 0.00163 µM) | 0.0078 (≈ 0.00163 µM) | 0.0078 (≈ 0.00163 µM) | 0.0078 (≈ 0.00163 µM) | – | – | – | – | MIC ([1]; L. monocytogenes CICC21634, MHB, 1 × 10^6 CFU/mL, 37 °C, 18 h, OD600nm, three independent experiments performed in triplicate): 0.5** μg/mL; MIC (P. aeruginosa GIM1.551 [2]; P. aeruginosa GIM1.551, MHB, 1 × 10^6 CFU/mL, 37 °C, 18 h, OD600nm, three independent experiments performed in triplicate): 0.5** μg/mL; MIC (S. aureus ATCC25923 [3]; S. aureus ATCC25923, MHB, 1 × 10^6 CFU/mL, 37 °C, 18 h, OD600nm, three independent experiments performed in triplicate): 0.0078** μg/mL; hemolysis rate (mouse erythrocytes): less than 5%; cell survival rate (NIH 3 T3 cells): over 80%
CC1(C)S[C@@H]2[C@H](NC(=O)Cc3ccccc3)C(=O)N2[C@H]1C(=O)O [benzylpenicillin potassium] | – | – | – | – | – | – | – | – | – | – | – | – | bacterial load in the abscess (S. aureus ATCC25923 [6]): reduced bacterial load in the abscess; tissue damage of liver and spleen (histopathology) (S. aureus ATCC25923 [7]): eliminated most of the damaged tissues; bacterial load in the liver and spleen (S. aureus ATCC25923 [7]; n = 5): reduced the bacterial load
CO/N=C(\C(=O)N[C@@H]1C(=O)N2C(C(=O)[O-])=C(CSC(=O)c3ccco3)CS[C@H]12)c1csc(N)n1.[Na+] [ceftiofur sodium] | – | – | – | – | – | – | – | – | – | – | – | – | in vitro antibacterial activity (disk diffusion) [8]: +; in vitro antibacterial activity (disk diffusion) (P. aeruginosa GIM1.551 [9]): +; in vitro antibacterial activity (disk diffusion) (S. aureus ATCC25923 [10]): +; in vitro antibacterial activity (disk diffusion) (S. typhimurium SL1344 [11]): +
GLLSRLRDFLSDRGRRLGEKIERIGQKIKDLSERFQS [PMAP-37(F34-R)] | 1 | 1 | 1 | 1 | 0.0156 | 0.0156 | 0.0156 | 0.0156 | 2* μg/mL | 1* μg/mL | 0.0156* μg/mL | 1** μg/mL | –
GLLSRLRDFLSDRGRRLGEKIERIGQKIKDLSEFFQS [PMAP-37] | 2 | 2 | 2 | 2 | 0.0313 | 0.0313 | 0.0313 | 0.0313 | 4 µg/mL | 2 µg/mL | 0.0313 µg/mL | 4 µg/mL | –
CC1(C)S[C@@H]2[C@H](NC(=O)[C@H](N)c3ccccc3)C(=O)N2[C@H]1C(=O)O [ampicillin sodium] | – | – | – | – | – | – | – | – | – | – | – | – | wound size vs PBS group (P. aeruginosa GIM1.551 [13]): smaller wound sizes than that of the PBS group; bacterial load in the abscess (P. aeruginosa GIM1.551 [14]): reduced bacterial load in the abscess
